The values below are quoted from earlier work in patent publication US20090238867A1, “Nanoparticulate Anidulafungin Compositions and Methods for Making the Same” (priority 2007, published 2009).

One series relates to glucan synthase. Conditions: enzyme present in fungal, not mammalian cells.
The conditions of series [1]: IV.
For series [2], the system named is Candida albicans. The following applies: parenteral; immunocompetent and immunosuppressed rabbits, disseminated infection.
Series [3] deals with Candida albicans.
Series [4] deals with fluconazole-resistant C. albicans. Conditions: immunosuppressed rabbits.
Series [5] deals with Candida albicans. The following applies: parenteral; immunocompetent and immunosuppressed mice, disseminated infection.
The subject of series [6] is cytochrome P450 (CYP450) isoenzymes.

The structures appear in SMILES notation. Read-outs that look alike come from different tables or passages of the source. Numbered stars: 1 amine (or outer) side, 2 acyl side, 3 side chain; on linkers, the order of the positions; unused ones are H or OH. Bridge positions count the residues as written; N and C are the ends. Square brackets hold non-standard residues; d marks the D form. Peptide text beside a SMILES is read from it. * marks the point of attachment. ξ: configuration not given here. pTerphenylCO(4''-OnC5H11) = CCCCCOc1ccc(-c2ccc(-c3ccc(C(=O)*)cc3)cc2)cc1; Orn(4R-OH,5R-OH) = O=C([C@H](C[C@@H](O)[C@@H](O)N[*:3])N[*:1])[*:2]; hTyr(3S-OH,4S-OH) = N[C@H](C(=O)O)[C@H](O)[C@@H](O)c1ccc(O)cc1; Pro(3S-OH,4S-Me) = C[C@H]1CN[C@H](C(=O)O)[C@H]1O; Hyp = O=C(O)[C@@H]1C[C@@H](O)CN1; ξThr(3R) = C[C@@H](O)C(N)C(=O)O

Consider `CCCCCOc1ccc(-c2ccc(-c3ccc(C(=O)N[C@H]4C[C@@H](O)[C@@H](O)NC(=O)[C@@H]5[C@@H](O)[C@@H](C)CN5C(=O)[C@H]([C@@H](C)O)NC(=O)[C@H]([C@H](O)[C@@H](O)c5ccc(O)cc5)NC(=O)[C@@H]5C[C@@H](O)CN5C(=O)C([C@@H](C)O)NC4=O)cc3)cc2)cc1` (stereo partly drawn) [anidulafungin, 1-[(4R,5R)-4,5-Dihydroxy-N^2-[[4″-(pentyloxy)[1,1′:4′,1″-terphenyl]-4-yl]carbonyl]-L-ornithine]echinocandin B] ({pTerphenylCO(4''-OnC5H11)}-[Orn(4R-OH,5R-OH)][ξThr(3R)][Hyp][hTyr(3S-OH,4S-OH)]T[Pro(3S-OH,4S-Me)]; lactam 1-C), for which the “inhibition of glucan synthase” value in the series on glucan synthase was “inhibits”. The in vitro activity result with C. glabrata is “active”. In series [1], the clearance entry is on record as “about 1 L/h”; the distribution half-life is 0.5 to 1 h; the “intersubject variability of systemic exposure (coefficient of variation)” value is recorded as less than 25%; the “systemic exposures, dose dependence” value was “dose proportional”. For the same compound, in [1], the terminal elimination half-life is 40 to 50 h and the volume of distribution was 30 to 50 L. Also, the “estimated plasma accumulation factor at steady state” value in [1] (after loading dose twice the daily maintenance dose) is recorded as “approximately 2”. Further, the “bound to human plasma proteins” value in the series with human plasma proteins is recorded as greater than 99%. The “efficacy as prolonged survival and reduction in mycological burden” value in the series with Candida albicans [2] is “effective”. In the series with Candida albicans [3], the in vitro activity entry is “active”. The mycological burden result in series [4] is “reduces the mycological burden”. Further, in the series on C. tropicalis, the in vitro activity entry was “active”. The solubility in ethanol result (ethanol) was “slightly soluble”. For the same compound, the solubility in water entry (water) is listed as “practically insoluble”. Further, in the series with Candida albicans [5], the “efficacy as prolonged survival and reduction in mycological burden” value is “effective”. Further, the in vitro activity entry in the series with C. parapsilosis is “active”. In the series with Candida (patients with candidemia and/or other forms of invasive candidiasis), the clinical effectiveness result was “effectiveness”. In addition, in the series on Candida (patients with esophageal candidiasis), the clinical effectiveness entry is “effectiveness”. In series [6], the “substrate, inducer or inhibitor of CYP450 isoenzymes” value is “not a clinically relevant substrate, inducer, or inhibitor”.
